Values quoted from earlier work in patent US7220434B2, “Dual-release compositions of a cyclooxygenase-2 inhibitor” (Pharmacia Corporation (of Pfizer, Inc.), priority 2000, dated 2007).

How the values were obtained:
[1] = conventionally formulated for oral delivery

Cc1ccc(-c2cc(C(F)(F)F)nn2-c2ccc(S(N)(=O)=O)cc2)cc1 [celecoxib, 4-[5-(4-methylphenyl)-3-(trifluoromethyl)-1H-pyrazol-1-yl]benzenesulfonamide]
solubility in water: low solubility in water
solubility in aqueous media (aqueous media): unusually insoluble

CS(=O)(=O)c1ccc(C2=C(c3ccccc3)C(=O)OC2)cc1 [rofecoxib, 3-phenyl-4-[4-(methylsulfonyl)phenyl]-5H-furan-2-one]
solubility in water: low solubility in water
half-life [1]: sufficient to provide therapeutic benefit over a 24-hour period

COc1ccc(-c2cc(C(F)F)nn2-c2ccc(S(N)(=O)=O)cc2)cc1F [deracoxib]
solubility in water: low solubility in water

Cc1onc(-c2ccccc2)c1-c1ccc(S(N)(=O)=O)cc1 [valdecoxib, 4-[5-methyl-3-phenylisoxazol-4-yl]benzenesulfonamide]
solubility in water: low solubility in water
